Measured values published in patent US20040019092A1, “Non-peptide somatostatin receptor ligands” (priority 2001, published 2004).
Values joined by “and” are separate entries in the source; they are usually repeats but may differ in a detail not shown here. Equal values may be shown once.

How the values were obtained:
[1] = test system: GHRH induced GH secretion in primary cultures of rat pituitary cells; test: In vitro inhibition of GHRH induced GH secretion (GH vitro +GHRH); type: cell-based
[2] = target: T1, human sst2 receptor sub-type (Homo sapiens, UniProt P30874); test: In vitro binding, human sst2 receptor sub-type (SSTR2); conditions: Tables 8/9: Bind SSTR2 nM
T1 construct: host or cells: SRIF receptor expressing cell cultures (general statement only)
T1 sequence (P30874 whole entry): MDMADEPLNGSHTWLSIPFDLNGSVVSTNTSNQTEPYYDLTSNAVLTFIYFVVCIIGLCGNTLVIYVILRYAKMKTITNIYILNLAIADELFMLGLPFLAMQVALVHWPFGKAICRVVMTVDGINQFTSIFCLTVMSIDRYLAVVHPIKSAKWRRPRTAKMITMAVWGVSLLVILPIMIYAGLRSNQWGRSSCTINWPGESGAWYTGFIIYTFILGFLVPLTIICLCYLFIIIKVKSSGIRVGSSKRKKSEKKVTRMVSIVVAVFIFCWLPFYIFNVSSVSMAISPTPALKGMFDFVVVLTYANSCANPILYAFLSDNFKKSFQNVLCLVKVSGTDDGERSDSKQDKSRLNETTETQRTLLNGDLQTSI
Procedure: The in vitro binding affinities for rat cortex SRIF receptors and the human sst2 receptor sub-type was assessed. Further the in vitro inhibition of the GHRH induced GH secretion in primary cultures of rat pituitary cells as well as the in vivo inhibition of GH secretion in the rat after systemic or enteral application was studied. […] Therefore, the in vivo activities of the compounds in rats with respect to inhibition of growth hormone release was also assessed. Most compounds selected were tested by enteral—intraduodenal (i.d.) application. For determination of the absolute activity and for the calculation of an enteral bioavailability, single subcutaneous (s.c.) application of intravenous (i.v.) infusion was used.

SSTR4 = target: T2, SSTR4 (Homo sapiens, UniProt P31391); test: Binding SSTR4; conditions: > = extrapolated value; read-out: Bind SSTR4
T2 construct: host or cells: SRIF receptor expressing cell cultures (general statement only)
T2 sequence (P31391 whole entry, species assumed): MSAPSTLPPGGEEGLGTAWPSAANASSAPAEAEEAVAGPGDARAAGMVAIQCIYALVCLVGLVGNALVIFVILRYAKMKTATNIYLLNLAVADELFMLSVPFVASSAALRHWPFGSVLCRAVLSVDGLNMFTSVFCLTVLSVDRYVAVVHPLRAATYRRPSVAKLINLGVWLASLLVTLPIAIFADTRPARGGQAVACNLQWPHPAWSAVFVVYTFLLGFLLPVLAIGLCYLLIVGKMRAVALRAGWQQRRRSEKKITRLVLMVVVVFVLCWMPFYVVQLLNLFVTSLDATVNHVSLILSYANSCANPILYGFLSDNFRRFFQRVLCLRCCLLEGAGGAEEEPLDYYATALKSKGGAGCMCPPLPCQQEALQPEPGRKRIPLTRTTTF

SSTR1 = target: T3, SSTR1 (Homo sapiens, UniProt P30872); test: Binding SSTR1; conditions: > = extrapolated value; read-out: Bind SSTR1
T3 construct: host or cells: SRIF receptor expressing cell cultures (general statement only)
T3 sequence (P30872 whole entry, species assumed): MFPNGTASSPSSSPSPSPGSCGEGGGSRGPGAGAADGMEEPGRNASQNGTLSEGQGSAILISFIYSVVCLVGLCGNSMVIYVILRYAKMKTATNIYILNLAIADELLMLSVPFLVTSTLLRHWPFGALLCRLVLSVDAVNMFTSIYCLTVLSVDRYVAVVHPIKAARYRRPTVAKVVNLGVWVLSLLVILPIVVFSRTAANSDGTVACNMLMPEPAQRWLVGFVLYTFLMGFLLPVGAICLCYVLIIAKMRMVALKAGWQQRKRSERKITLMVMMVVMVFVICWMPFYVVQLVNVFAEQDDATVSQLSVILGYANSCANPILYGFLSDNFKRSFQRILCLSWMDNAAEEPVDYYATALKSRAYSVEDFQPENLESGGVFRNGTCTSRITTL

SSTR5 = target: T4, SSTR5 (Homo sapiens, UniProt P35346); test: Binding SSTR5; conditions: read-out: Bind SSTR5
T4 construct: host or cells: SRIF receptor expressing cell cultures (general statement only)
T4 sequence (P35346 whole entry, species assumed): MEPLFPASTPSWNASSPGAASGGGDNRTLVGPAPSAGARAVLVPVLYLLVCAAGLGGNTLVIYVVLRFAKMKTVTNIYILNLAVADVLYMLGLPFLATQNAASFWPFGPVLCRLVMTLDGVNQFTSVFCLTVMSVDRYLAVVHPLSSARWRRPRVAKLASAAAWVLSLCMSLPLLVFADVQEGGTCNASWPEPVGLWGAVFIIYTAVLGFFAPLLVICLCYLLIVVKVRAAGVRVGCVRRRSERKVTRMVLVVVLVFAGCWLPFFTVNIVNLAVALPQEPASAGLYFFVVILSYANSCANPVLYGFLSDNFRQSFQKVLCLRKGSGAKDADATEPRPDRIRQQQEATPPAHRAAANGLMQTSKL

GH secretion [3] = test: GH secretion in vivo, rat, subcutaneous application, 1 h (basal); conditions: for GH vivo s.c. 1 h ID50: rat, basal GH secretion, 1 h after subcutaneous application
Procedure: (§1) Animals, anesthesia: Male rats of a Sprague Dawley strain (Ico:OFA-SD, Iffa-Credo, F-Lyon) of 200-300 g body weight were used. They were kept under standardized conditions and were anesthetized with pentobarbital-sodium (Siegfried, CH Zofingen), 60 mg/kg i.p. for subcutaneous and intraduodenal applications. Animals designed for an infusion experiment were anesthetized with urethane (Siegfried, CH Zofingen), 1.2 g/kg i.p.
(§2) Compounds: The compounds were dissolved, optionally with the aid of one or more of the following adjuncts:
(§3) Stock solutions of the compounds were prepared in water with the addition of the necessary adjunct(s). Further dilutions were prepared allowing 5 mL/kg for subcutaneous application, 2 mL for intraduodenal (i.d.) application or 4.5 mL/kg for intravenous infusion. The solutions for the intravenous application/infusion were made isotonic by addition of glucose to a final concentration of 5%.
(§4) Applications were made, or, in the case of infusion, started, approximately 10 minutes after induction of anesthesia. No further treatment followed subcutaneous or intraduodenal application. Ten, twenty-five and fifty-five minutes after start of the intravenous infusion the GH secretion was stimulated with repeated intravenous injections of the potent GHRH analog, D-Ala2 GHRH1-29NH2, 1 μg/kg.
(§5) One hour after subcutaneous or intraduodenal application of the compounds, blood was collected from the trunk after decapitation. In the case of application by infusion, 5 minutes after each application of GHRH, a blood sample of 0.8 mL was taken from a V. jugularis and mixed with EDTA (Eppendorf tubes TOM14, Milian, CH Geneva). The blood samples were kept on ice and spun in a cooled centrifuge. The serum or plasma was separated and frozen.
(§6) Statistics: In each experiment, 4-5 animals were used per dose, with 6 to 8 animals as the control group that received the vehicle. The GH serum/plasma levels were averaged, the mean of the treated groups expressed in percent of the control group and the ID50-value for the inhibition of the secretion was determined graphically (log-probit) for each experiment. In most experiments with enteral (intraduodenal) application only 1 dose, 10 mg/kg, was given. […] Only inhibitions between 20 and 80% were considered reliable.
(§7) Two to four experiments were performed. In the case of proper dose response curves, allowing the determination of an ID50 values were averaged logarithmically. In the cases of single dose-experiments, the GH value in percent of control were averaged logarithmically and the ID50 for this value was taken from the table. ID50 values determined at the different time points during the infusion were averaged and this value was included in the tables.

SS1 = SS1 (Rattus norvegicus, UniProt P30680); test: SS-1 binding (Bind SS1 D.H.)
Sequence of SS1 (P30680 whole entry): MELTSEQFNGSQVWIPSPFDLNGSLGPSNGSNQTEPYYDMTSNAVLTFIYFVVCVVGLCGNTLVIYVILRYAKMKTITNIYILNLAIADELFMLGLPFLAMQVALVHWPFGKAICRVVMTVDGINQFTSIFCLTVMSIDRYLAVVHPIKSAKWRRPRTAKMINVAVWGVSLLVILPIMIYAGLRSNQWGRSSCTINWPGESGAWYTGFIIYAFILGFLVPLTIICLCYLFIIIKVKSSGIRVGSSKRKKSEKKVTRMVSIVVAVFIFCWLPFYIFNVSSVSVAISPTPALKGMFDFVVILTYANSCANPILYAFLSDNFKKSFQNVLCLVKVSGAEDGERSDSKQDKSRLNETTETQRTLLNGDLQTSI

SSTR3 = target: T5, SSTR3 (Homo sapiens, UniProt P32745); test: Binding SSTR3; conditions: > = extrapolated value; read-out: Bind SSTR3
T5 construct: host or cells: SRIF receptor expressing cell cultures (general statement only)
T5 sequence (P32745 whole entry, species assumed): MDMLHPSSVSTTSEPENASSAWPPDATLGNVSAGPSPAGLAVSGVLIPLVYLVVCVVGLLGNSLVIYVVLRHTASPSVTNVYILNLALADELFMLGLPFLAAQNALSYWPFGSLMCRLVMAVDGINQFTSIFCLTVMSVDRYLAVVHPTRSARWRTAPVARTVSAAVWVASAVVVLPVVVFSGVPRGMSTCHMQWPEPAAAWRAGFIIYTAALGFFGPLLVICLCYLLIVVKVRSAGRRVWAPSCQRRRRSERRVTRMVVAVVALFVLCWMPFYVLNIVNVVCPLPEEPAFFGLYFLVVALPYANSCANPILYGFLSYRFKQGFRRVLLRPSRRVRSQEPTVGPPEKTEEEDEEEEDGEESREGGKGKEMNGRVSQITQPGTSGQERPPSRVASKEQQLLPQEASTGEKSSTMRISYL

GH secretion [4] = test: GH secretion in vivo, rat, intraduodenal (enteral) application, 1 h (basal); conditions: for GH vivo i.d. 1 h ID50: basal GH secretion, 1 h after intraduodenal application, mostly approximate ID50 from single 10 mg/kg dose, Ø = no effect at this dose, > = extrapolated value; for enteral ID50 (GH secretion): enteral (intraduodenal) application
Procedure: as §1, §2, §3, §4, §5, §6, §7

[5] = test system: GHRH stimulated GH secretion; test: GH secretion in vivo, rat, intravenous infusion with repeated GHRH stimulation; conditions: for INFUS. + GHRH ID50 MEAN: Table 4, mean of infusion time points; for INFUS. + GHRH ID50 15′ / INFUS. + GHRH ID50 30′ / INFUS. + GHRH ID50 60′: Table 4, urethan; for INFUS. + GHRH ID50 15′ / GH, Ur Inf15′ +GHRH: 15′ of infusion; for INFUS. + GHRH ID50 30′ / GH, UR Inf30′ +GHRH: 30′ of infusion; for INFUS. + GHRH ID50 60′ / GH, UR Inf60′ +GHRH: 60′ of infusion; for GH, Ur Inf15′ +GHRH / GH, UR Inf30′ +GHRH / GH, UR Inf60′ +GHRH: Tables 8/9, urethane; for GH vivo Inf + GHRH ID50 (mean of time points): urethane, i.v. infusion, GHRH stimulated
Procedure: as §1, §3, §4, §5, §6, §7

IC50 [1] [nM] | IC50 [2] [nM] | IC50 (SSTR4) [nM] | IC50 (SSTR1) [nM] | IC50 (SSTR5) [nM] | Bind SS1 D.H. (SS1) [nM] | IC50 (SSTR3) [nM] | Compound | GH vivo s.c. 1 h ID50 (GH secretion [3]) [mg/kg] | GH vivo i.d. 1 h ID50 (GH secretion [4]) | enteral ID50 (GH secretion) (GH secretion [4]) [mg/kg] | INFUS. + GHRH ID50 MEAN [5] [mg/kg] | INFUS. + GHRH ID50 15′ [5] [mg/kg] | INFUS. + GHRH ID50 30′ [5] [mg/kg] | INFUS. + GHRH ID50 60′ [5] [mg/kg] | GH, Ur Inf15′ +GHRH [5] | GH, UR Inf30′ +GHRH [5] [µg/kg/h] | GH, UR Inf60′ +GHRH [5] [µg/kg/h] | GH vivo Inf + GHRH ID50 (mean of time points) [5] [µg/kg/h] | other results
1.7 | 2.7 | > 1000 | > 1000 | 170 | 1.00 | > 1000 | Cc1cccc2c(CC3C(=O)N(CCCCCN)C(=O)N3S(=O)(=O)c3ccc(Oc4ccc(O)c(Cl)c4)c(C#N)c3)c[nH]c12 (stereo not shown) [Compound 44] | 0.258 | 9.721 mg/kg | 9.7 | 0.0432 | 0.0724 | 0.041 | 0.0271 | 50 µg/kg/h | 30 | 21 |  | GH vivo s.c. 1 h ID50 (GH secretion [3]; listed as 44 ch): 0.258 mg/kg; GH vivo Inf + GHRH ID50 (mean of time points) ([5]; listed as 44 ch): 43.00 µg/kg/h and 32 µg/kg/h
5.1 | 3 | > 1000 | 1400 | 97 | 1.00 | 220 | Cc1cccc2c(CC3C(=O)N(CCCCCN)C(=O)N3S(=O)(=O)c3ccc(Oc4ccc(O)cc4)c(CN)c3)c[nH]c12 (stereo not shown) [Compound 45] | 0.048 | 11.4 mg/kg | 11.4 | 0.03105 | 0.034 | 0.03 | 0.031 | 34.000 µg/kg/h | 30.000 | 30.000 |  | GH vivo s.c. 1 h ID50 (GH secretion [3]; listed as 45 ch): 0.048 mg/kg; GH vivo s.c. 1 h ID50 (GH secretion [3]; listed as 45 dch): 0.048 mg/kg; enteral bioavailability (from ID50 ratio) (GH secretion [4]; intraduodenal 1 hour vs parenteral ID50): =0/42%; GH vivo Inf + GHRH ID50 (mean of time points) ([5]; listed as 45 ch): 30.000 µg/kg/h; GH vivo Inf + GHRH ID50 (mean of time points) ([5]; listed as 45 dch): 31.05 µg/kg/h and 30.000 µg/kg/h
255 | 44 | 5300 | 50000 | 1400 |  | 2800 | N#Cc1cc(S(=O)(=O)N2C(=O)N(CCCCCN)C(=O)C2Cc2c[nH]c3ccccc23)ccc1Oc1ccc(N)cc1 (stereo not shown) [Compound 42] |  | Ø10000 μg/kg |  |  |  |  |  | 856.000 µg/kg/h | 434.000 | 425.000 | 540.000 | 

Compound | IC50 [1] [nM] | IC50 [2] [nM] | IC50 (SSTR4) [nM] | IC50 (SSTR1) [nM] | IC50 (SSTR5) [nM] | Bind SS1 D.H. (SS1) [nM] | IC50 (SSTR3) [nM] | GH vivo s.c. 1 h ID50 (GH secretion [3]) [mg/kg] | GH vivo i.d. 1 h ID50 (GH secretion [4]) | enteral ID50 (GH secretion) (GH secretion [4]) [mg/kg] | INFUS. + GHRH ID50 MEAN [5] [mg/kg] | INFUS. + GHRH ID50 15′ [5] [mg/kg] | INFUS. + GHRH ID50 30′ [5] [mg/kg] | INFUS. + GHRH ID50 60′ [5] [mg/kg] | GH, Ur Inf15′ +GHRH [5] | GH, UR Inf30′ +GHRH [5] [µg/kg/h] | GH, UR Inf60′ +GHRH [5] [µg/kg/h] | GH vivo Inf + GHRH ID50 (mean of time points) [5] [µg/kg/h] | other results
Cc1cccc2c(CC3C(=O)N(CCCCCN)C(=O)N3S(=O)(=O)c3ccc(Oc4ccc(O)cc4)c(C#N)c3)c[nH]c12 (stereo not shown) [Compound 14] | 11 | 5.7 | > 1000 | > 1000 | 450 | 2.50 | 300 | 1.16 | >30 mg/kg |  |  |  |  |  | ˜44 μg/kg/h | 11.000 | 14.000 | 19.000 | EC50 for inhibition of GH release, subcutaneous (GH secretion [3]; applied subcutaneous): ~1 mg/kg; SS-1 binding pKd (SS1): 8.56
